In assay [1] the target is T1, PaPhzD-FITC (Pseudomonas aeruginosa, UniProt P0DPB9).
T1 construct: inferred from Ni-NTA purification with imidazole elution; made in house; host or cells: E. coli BL21(DE3)
Nature of the assay: Fluorescence binding assay with FITC-labeled PaPhzD. The conditions noted are these: 0.32 μM FITC-labeled PaPhzD, 25 °C, 3-parameter fit; read-out: Kd. On the procedure:
PaPhzD (2.1 mg/mL) was incubated with 6 mg/mL fluorescein isothiocyanate (FITC) (Sigma-Aldrich 46950) (1:1) for 2 h at 25 °C. Next, the reaction mixture was eluted on a Hi-Trap HP desalting column (GE Healthcare) with 2 CV of 50 mM HEPES buffer (pH 8.0). The collected fractions were quantified at two different wavelengths (280 and 495 nm), and the molar ratio (Abs495/Abs280) ranging from 0.3 to 1.0 was employed for K d calculation experiments.
Subsequently, the fluorescence intensity of 0.32 μM of FITC-labeled PaPhzD was measured on a real-time thermocycler (Applied Biosystems 7500) equipped with the filter FAN (excitation wavelength: 498 nm; emission wavelength: 530 nm) for 10 min in the presence of different concentrations of each LDT compound (ranging 0.7–100 μM), previously diluted in DMSO.
The fluorescence raw data were recorded using Applied Biosystems 7500 Software v2.0, then exported to GraphPad Prism version 9.0 software to build fluorescence intensity × concentration plots and calculate K d values of the ligands by the nonlinear regression method (3-parameter fit). All experiments were carried out in triplicate using a 96-well PCR plate, manually sealed with transparent capping strips (Flatcap strips, BioRadVR).

The subject of assay [2] is P. aeruginosa cells (ATCC 27853). Briefly: Bacterial growth (OD600) in the PYO screening culture. The format is cell-based, Pseudomonas aeruginosa. To be noted: 100 μM. The protocol: The potential inhibitors, previously solubilized in DMSO, were added to the culture medium after the inoculation (final concentration = 100 μM). The control group was cultured in the presence of an equivalent volume of DMSO but without the presence of potential inhibitors. The cell suspension was maintained at 30 °C under constant agitation (180 rpm) for 24 h in a 24-well plate. After this period, the OD600 was measured to evaluate bacterial growth, and in parallel, after being subjected to centrifugation, the supernatant was read in a 96-well plate at a wavelength of 691 nm. The sterile medium used for culturing the microorganism was used as a positive control, and culture medium containing 1% DMSO was used as a negative control.

For assay [3], the system named is human PPAR isoforms. Further details: method as in Sahin et al. 2022 (likely, number not given). To be noted: previously investigated; ref Sahin et al. 2022 (likely, number not given); cited from earlier work.

Entries after “also recorded” stand apart in the source; their conditions may differ.

T1 sequence (P0DPB9 whole entry): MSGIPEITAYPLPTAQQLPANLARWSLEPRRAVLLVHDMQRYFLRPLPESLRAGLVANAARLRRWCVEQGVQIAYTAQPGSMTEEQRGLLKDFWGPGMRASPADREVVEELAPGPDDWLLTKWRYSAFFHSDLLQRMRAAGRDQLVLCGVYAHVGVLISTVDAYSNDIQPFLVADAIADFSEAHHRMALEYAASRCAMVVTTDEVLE

Regarding `CCCCCCCCCCCCCCCc1cccc(O)c1` [Compound 2], in assay [1], the Kd was found to be 2.8 µM. In assay [2], the “Effect on bacterial growth” value is given as “without affecting bacterial growth; also recorded: no significant effect on bacterial growth”. In addition, in assay [3], the PPAR activity profile result was “do not activate PPAR receptors”.

Broadly, the Kd is the constant that tells how readily two partners part at equilibrium.

Source of the values: PMC12756723, “Derivatives of the Cashew Nut Shell Liquid as Ligands of Pseudomonas aeruginosa Phenazine Protein D (PaPhzD)” (ACS Omega, 2025).
